Laboratory results reported in PubChem BioAssay AID1845206 (Molecular Pharmacology Branch, DTP, NCI, 2023).
“And” between values parts separate entries of the source, which are not always exact repeats. Equal entries are not always repeated. The source made the active and inactive calls. How the source made its calls: active means viability on the fitted dose curve at most 10% of control; inactive means the rest.

System: NCI-H1618 multicellular tumor spheroid viability
Test: Anticancer human tumor NCI-H1618 cell line growth inhibition;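 further: spheroids exposed to agents for 7 days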
Details: for viability, T/C: stronger effect = lower value; for IC50: curve of first compound
Procedure, shortened: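 Complex spheroids of malignant cells with endothelial cells and mesenchymal stem cells; agents alone or combined, from near clinical Cmax (or 10 microM if unknown) down in half-log steps, 0.25% DMSO final.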

[2H]c1nc(C)nc([2H])c1-c1cc(NC[C@@H](C)c2cccc3c(C(=O)NC)ccnc23)ncn1
inactive: viability, T/C (compound 0.0316 µM) 97% and 100% and 12.9% | viability, T/C (compound 0.1 µM) 98.5% and 98% and 8.24% | outcome (compound 0.316 µM) | viability, T/C (compound 0.316 µM) 101% and 117% | viability, T/C (compound 1 µM) 96.4% and 101% and 142% | viability, T/C (compound 3.16 µM) 88.6% and 94% and 106% | viability, T/C (compound 10 µM) 97.2% and 102% and 91.8%

COc1cc(C)[nH]c(=O)c1CN1CCc2c(Cl)cc(C(OC)C3COC3)c(Cl)c2C1=O (configuration not stated) + Cn1nnc2c(C(N)=O)ncn2c1=O
active: viability, T/C (second compound 10 µM, first compound 0.0316 µM) 3.15% | viability, T/C (second compound 10 µM, first compound 0.1 µM) 6.34% | viability, T/C (second compound 10 µM, first compound 0.316 µM) 4.96% | viability, T/C (second compound 10 µM, first compound 1 µM) 18.4% | viability, T/C (second compound 10 µM, first compound 3.16 µM) 3.33% | viability, T/C (second compound 10 µM, first compound 10 µM) 4.36% | viability, T/C (second compound 31.6 µM, first compound 0.0316 µM) 6.62% | viability, T/C (second compound 31.6 µM, first compound 0.1 µM) 13.3% | viability, T/C (second compound 31.6 µM, first compound 0.316 µM) 3.61% | viability, T/C (second compound 31.6 µM, first compound 1 µM) 5.57% | viability, T/C (second compound 31.6 µM, first compound 3.16 µM) 10.4% | viability, T/C (second compound 31.6 µM, first compound 10 µM) 13%
> 10000 nM: IC50 (second compound 1 µM)
inactive: outcome (second compound 1 µM, first compound 0.0316 µM) | viability, T/C (second compound 1 µM, first compound 0.1 µM) 77.7% | outcome (second compound 1 µM, first compound 0.316 µM) | outcome (second compound 1 µM, first compound 1 µM) | viability, T/C (second compound 1 µM, first compound 3.16 µM) 69.6% | viability, T/C (second compound 1 µM, first compound 10 µM) 72.8% | viability, T/C (second compound 3.16 µM, first compound 0.0316 µM) 14.2% | viability, T/C (second compound 3.16 µM, first compound 0.1 µM) 16.2% | viability, T/C (second compound 3.16 µM, first compound 0.316 µM) 20.3% | viability, T/C (second compound 3.16 µM, first compound 1 µM) 10.3% | viability, T/C (second compound 3.16 µM, first compound 3.16 µM) 15.8% | viability, T/C (second compound 3.16 µM, first compound 10 µM) 15.4% | viability, T/C (second compound 100 µM, first compound 0.0316 µM) 45.3% | viability, T/C (second compound 100 µM, first compound 0.1 µM) 41.6% | viability, T/C (second compound 100 µM, first compound 0.316 µM) 29.8% | viability, T/C (second compound 100 µM, first compound 1 µM) 39.6% | viability, T/C (second compound 100 µM, first compound 3.16 µM) 18.3% | viability, T/C (second compound 100 µM, first compound 10 µM) 45.1%
< 31.6 nM: IC50 (second compound 3.16 µM) | IC50 (second compound 10 µM) | IC50 (second compound 31.6 µM) | IC50 (second compound 100 µM)

Cc1sc2c(c1C)C(c1ccc(Cl)cc1)=NC(CC(=O)Nc1ccc(O)cc1)c1nnc(C)n1-2 (configuration not stated) + Cn1nnc2c(C(N)=O)ncn2c1=O
active: viability, T/C (second compound 3.16 µM, first compound 3 µM) 5.41% | viability, T/C (second compound 10 µM, first compound 0.00949 µM) 6.33% | viability, T/C (second compound 10 µM, first compound 0.03 µM) 21.3% | viability, T/C (second compound 10 µM, first compound 0.0949 µM) 5.98% | viability, T/C (second compound 10 µM, first compound 0.3 µM) 18.9% | viability, T/C (second compound 10 µM, first compound 0.949 µM) 2.4% | viability, T/C (second compound 10 µM, first compound 3 µM) 1.94% | viability, T/C (second compound 31.6 µM, first compound 0.03 µM) 9.11% | viability, T/C (second compound 31.6 µM, first compound 0.0949 µM) 17.6% | viability, T/C (second compound 31.6 µM, first compound 0.3 µM) 4.34% | viability, T/C (second compound 31.6 µM, first compound 0.949 µM) 1.89% | viability, T/C (second compound 31.6 µM, first compound 3 µM) 1.29% | viability, T/C (second compound 100 µM, first compound 0.949 µM) 6.16% | viability, T/C (second compound 100 µM, first compound 3 µM) 0.99%
146 nM: IC50 (second compound 100 µM)
< 9.49 nM: IC50 (second compound 3.16 µM) | IC50 (second compound 10 µM) | IC50 (second compound 31.6 µM)
783 nM: IC50 (second compound 1 µM)
inactive: viability, T/C (second compound 1 µM, first compound 0.00949 µM) 97.7% | viability, T/C (second compound 1 µM, first compound 0.03 µM) 20.7% | viability, T/C (second compound 1 µM, first compound 0.0949 µM) 90% | viability, T/C (second compound 1 µM, first compound 0.3 µM) 72% | viability, T/C (second compound 1 µM, first compound 0.949 µM) 45.9% | viability, T/C (second compound 1 µM, first compound 3 µM) 20.5% | viability, T/C (second compound 3.16 µM, first compound 0.00949 µM) 19.5% | viability, T/C (second compound 3.16 µM, first compound 0.03 µM) 35.3% | viability, T/C (second compound 3.16 µM, first compound 0.0949 µM) 49.1% | viability, T/C (second compound 3.16 µM, first compound 0.3 µM) 22.8% | viability, T/C (second compound 3.16 µM, first compound 0.949 µM) 5.18% | viability, T/C (second compound 31.6 µM, first compound 0.00949 µM) 7.34% | viability, T/C (second compound 100 µM, first compound 0.00949 µM) 53.6% | viability, T/C (second compound 100 µM, first compound 0.03 µM) 78.7% | viability, T/C (second compound 100 µM, first compound 0.0949 µM) 70.3% | viability, T/C (second compound 100 µM, first compound 0.3 µM) 20.8%
